Reference: ChEMBL document CHEMBL5247660, “The lipidation and glycosylation enabling bioactivity enhancement and structural change of antibacterial peptide G3” (Bioorg Med Chem Lett, 2023)
Converted amounts (≈) assume the structure as drawn. The source made the active and inactive calls. The calls are words filed in the database; no cut-off is given here. Residues, ends and D or L forms follow the SMILES beside them. *: point of attachment. βGlc = OC[C@H]1O[C@@H](*)[C@H](O)[C@@H](O)[C@@H]1O; βGal = OC[C@H]1O[C@@H](*)[C@H](O)[C@@H](O)[C@H]1O; Palmitoyl = CCCCCCCCCCCCCCCC(=O)*; Lauroyl = CCCCCCCCCCCC(=O)*; Octanoyl = CCCCCCCC(=O)*

Experiments:
Pseudomonas aeruginosa [1] = assay: Antibiofilm activity against Pseudomonas aeruginosa PAO1 assessed as removal of mature biofilm at 32 uM incubated for 4 hrs at relative to control; type: functional
Staphylococcus aureus [2] = assay: Antibacterial activity against methicillin-resistant Staphylococcus aureus assessed as bacterial growth inhibition; type: functional
Pseudomonas aeruginosa [3] = assay: Antibiofilm activity against Pseudomonas aeruginosa PAO1 assessed as inhibition of biofilm formation at 8 to 32 uM incubated for 24 hrs by microplate reader analysis relative to control; type: functional; details: dose 8-32 µM, read-out: MIC
Pseudomonas aeruginosa [4] = assay: Antibiofilm activity against Pseudomonas aeruginosa PAO1; type: functional, organism-based
[5] = target: T1, PA-I galactophilic lectin (Pseudomonas aeruginosa (strain ATCC 15692 / PAO1 / 1C / PRS 101 / LMG12228), UniProt Q05097); assay: Binding affinity to Pseudomonas aeruginosa LecA assessed as dissociation constant
T1 sequence (Q05097 whole entry): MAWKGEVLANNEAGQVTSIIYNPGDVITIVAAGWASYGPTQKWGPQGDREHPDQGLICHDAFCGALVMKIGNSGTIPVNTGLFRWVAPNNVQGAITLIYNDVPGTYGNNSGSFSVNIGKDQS

[6] = target: T2, PA-I galactophilic lectin (Pseudomonas aeruginosa (strain ATCC 15692 / PAO1 / 1C / PRS 101 / LMG12228)) (UniProt Q05097); assay: Binding affinity to Pseudomonas aeruginosa LecA assessed as change in entropy
T2 sequence (whole entry): T1 sequence (Q05097 whole entry)

Pseudomonas aeruginosa [7] = assay: Antibacterial activity against Pseudomonas aeruginosa assessed as bacterial growth inhibition; type: functional
[8] = target: T2, PA-I galactophilic lectin (Pseudomonas aeruginosa (strain ATCC 15692 / PAO1 / 1C / PRS 101 / LMG12228)); assay: Binding affinity to Pseudomonas aeruginosa LecA assessed as change in enthalpy
Cell membrane = assay: Induction of outer membrane permeabilization in Pseudomonas aeruginosa PAO1 assessed as increase in NPN uptake at 8 to 32 uM by NPN-dye based fluorescence analysis; details: dose 8-32 µM
Pseudomonas aeruginosa [9] = assay: Antibiofilm activity against Pseudomonas aeruginosa PAO1 assessed as inhibition of biofilm formation at 32 uM incubated for 24 hrs by microplate reader analysis relative to control; type: functional
Escherichia coli = assay: Antibacterial activity against Escherichia coli assessed as bacterial growth inhibition; type: functional
Staphylococcus aureus [10] = assay: Antibacterial activity against Staphylococcus aureus assessed as bacterial growth inhibition; type: functional
[11] = Hemolytic activity in sheep RBC assessed as hemolysis at 128 uM; type: toxicity, cell-based, Ovis aries; details: erythrocyte
Pseudomonas aeruginosa [12] = assay: Antibiofilm activity against Pseudomonas aeruginosa PAO1 assessed as inhibition of biofilm formation ratio at 2 times of MIC concentration incubated for 24 hrs by microplate reader analysis relative to control; type: functional; parameters: scale not given: the % may be the effect or the level left
Pseudomonas aeruginosa [13] = assay: Antibiofilm activity against Pseudomonas aeruginosa PAO1 assessed as inhibition of biofilm formation ratio at MIC concentration incubated for 24 hrs by microplate reader analysis relative to control; type: functional; parameters: scale not given: the % may be the effect or the level left
[14] = Hemolytic activity in sheep RBC assessed as hemolysis; type: toxicity, cell-based, Ovis aries; details: erythrocyte
Pseudomonas aeruginosa [15] = assay: Antibiofilm activity against Pseudomonas aeruginosa PAO1 assessed as increase in biofilm inhibition ratio at 2 times of MIC concentration incubated for 24 hrs by microplate reader analysis relative to control; type: functional; parameters: scale not given: the % may be the effect or the level left
Pseudomonas aeruginosa [16] = assay: Antibiofilm activity against Pseudomonas aeruginosa PAO1 assessed as increase in biofilm inhibition ratio at MIC concentration incubated for 24 hrs by microplate reader analysis relative to control; type: functional; parameters: scale not given: the % may be the effect or the level left
Pseudomonas aeruginosa [17] = assay: Antibiofilm activity against Pseudomonas aeruginosa PAO1 assessed as increase in biofilm inhibition ratio at half MIC concentration incubated for 24 hrs by microplate reader analysis relative to control; type: functional; parameters: scale not given: the % may be the effect or the level left

Compound | Activity (Pseudomonas aeruginosa [1]) [%] | MIC (Staphylococcus aureus [2]) [µM] | Minimum biofilm inhibitory concentration (Pseudomonas aeruginosa [3]) [µM] | Activity (Pseudomonas aeruginosa [4]) | Kd [5] [µM] | deltaS [6] [J/mol/K] | MIC (Pseudomonas aeruginosa [7]) [µM] | deltaH [8] [kcal/mol] | Activity (Cell membrane) | MIC (Pseudomonas aeruginosa [9]) [µM] | MIC (Escherichia coli) [µM] | MIC (Staphylococcus aureus [10]) [µM] | Activity [11] | Activity (Pseudomonas aeruginosa [12]) [%] | Activity (Pseudomonas aeruginosa [13]) [%] | Activity [14] | Activity (Pseudomonas aeruginosa [15]) [%] | Activity (Pseudomonas aeruginosa [16]) [%] | Activity (Pseudomonas aeruginosa [17]) [%]
CC[C@H](C)[C@H](NC(=O)CN)C(=O)N[C@H](C(=O)N[C@@H](CCCCN)C(=O)N[C@@H](CCCCN)C(=O)N[C@H](C(=O)N[C@H](C(=O)N[C@@H](CCCCN)C(=O)N[C@@H](CCCCN)C(=O)N[C@H](C(=O)N[C@H](C(=O)N[C@@H](CCCCN)C(=O)N[C@@H](CCCCN)C(=O)N[C@H](C(=O)N[C@@H](CO[C@@H]1O[C@H](CO)[C@H](O)[C@H](O)[C@H]1O)C(N)=O)[C@@H](C)CC)[C@@H](C)CC)[C@@H](C)CC)[C@@H](C)CC)[C@@H](C)CC)[C@@H](C)CC (H-GIIKKIIKKIIKKIS(βGal)-NH2) | 62 | 32 (≈ 60.3 µg/mL) | 16 | Active | 21.1 | -246 | 16 (≈ 30.2 µg/mL) | -23.9 | Active | 32 (≈ 60.3 µg/mL) | 32 (≈ 60.3 µg/mL) | 16 (≈ 30.2 µg/mL) | – | – | – | – | – | – | –
CC[C@H](C)[C@H](NC(=O)CN)C(=O)N[C@H](C(=O)N[C@@H](CCCCN)C(=O)N[C@@H](CCCCN)C(=O)N[C@H](C(=O)N[C@H](C(=O)N[C@@H](CCCCN)C(=O)N[C@@H](CCCCN)C(=O)N[C@H](C(=O)N[C@H](C(=O)N[C@@H](CCCCN)C(=O)N[C@@H](CCCCN)C(=O)N[C@H](C(=O)N[C@@H](CO[C@@H]1O[C@H](CO)[C@@H](O)[C@H](O)[C@H]1O)C(N)=O)[C@@H](C)CC)[C@@H](C)CC)[C@@H](C)CC)[C@@H](C)CC)[C@@H](C)CC)[C@@H](C)CC (H-GIIKKIIKKIIKKIS(βGlc)-NH2) | 71 | 32 (≈ 60.3 µg/mL) | 16 | Active | – | – | 16 (≈ 30.2 µg/mL) | – | Active | – | 32 (≈ 60.3 µg/mL) | 16 (≈ 30.2 µg/mL) | – | – | – | – | – | – | –
CCCCCCCCCCCC(=O)NCC(=O)N[C@H](C(=O)N[C@H](C(=O)N[C@@H](CCCCN)C(=O)N[C@@H](CCCCN)C(=O)N[C@H](C(=O)N[C@H](C(=O)N[C@@H](CCCCN)C(=O)N[C@@H](CCCCN)C(=O)N[C@H](C(=O)N[C@H](C(=O)N[C@@H](CCCCN)C(=O)N[C@@H](CCCCN)C(=O)N[C@H](C(N)=O)[C@@H](C)CC)[C@@H](C)CC)[C@@H](C)CC)[C@@H](C)CC)[C@@H](C)CC)[C@@H](C)CC)[C@@H](C)CC (Lauroyl-GIIKKIIKKIIKKI-NH2) | – | 12 (≈ 21.8 µg/mL) | 16 | – | – | – | 16 (≈ 29.1 µg/mL) | – | Active | – | 12 (≈ 21.8 µg/mL) | 4 (≈ 7.27 µg/mL) | – | – | – | – | – | – | –
CCCCCCCC(=O)NCC(=O)N[C@H](C(=O)N[C@H](C(=O)N[C@@H](CCCCN)C(=O)N[C@@H](CCCCN)C(=O)N[C@H](C(=O)N[C@H](C(=O)N[C@@H](CCCCN)C(=O)N[C@@H](CCCCN)C(=O)N[C@H](C(=O)N[C@H](C(=O)N[C@@H](CCCCN)C(=O)N[C@@H](CCCCN)C(=O)N[C@H](C(N)=O)[C@@H](C)CC)[C@@H](C)CC)[C@@H](C)CC)[C@@H](C)CC)[C@@H](C)CC)[C@@H](C)CC)[C@@H](C)CC (Octanoyl-GIIKKIIKKIIKKI-NH2) | – | 4 (≈ 7.05 µg/mL) | 16 | – | – | – | 16 (≈ 28.2 µg/mL) | – | Active | – | 4 (≈ 7.05 µg/mL) | 4 (≈ 7.05 µg/mL) | Toxic | – | – | – | – | – | –
CCCCCCCC(=O)NCC(=O)N[C@H](C(=O)N[C@H](C(=O)N[C@@H](CCCCN)C(=O)N[C@@H](CCCCN)C(=O)N[C@H](C(=O)N[C@H](C(=O)N[C@@H](CCCCN)C(=O)N[C@@H](CCCCN)C(=O)N[C@H](C(=O)N[C@H](C(=O)N[C@@H](CCCCN)C(=O)N[C@@H](CCCCN)C(=O)N[C@H](C(=O)N[C@@H](CO[C@@H]1O[C@H](CO)[C@H](O)[C@H](O)[C@H]1O)C(N)=O)[C@@H](C)CC)[C@@H](C)CC)[C@@H](C)CC)[C@@H](C)CC)[C@@H](C)CC)[C@@H](C)CC)[C@@H](C)CC (Octanoyl-GIIKKIIKKIIKKIS(βGal)-NH2) | – | 4 (≈ 8.04 µg/mL) | 16 | Active | 14.1 | 29.4 | 16 (≈ 32.2 µg/mL) | -4.53 | Active | – | 4 (≈ 8.04 µg/mL) | 4 (≈ 8.04 µg/mL) | – | 71 | 71 | Dose-Dependent Effect | – | – | –
CCCCCCCC(=O)NCC(=O)N[C@H](C(=O)N[C@H](C(=O)N[C@@H](CCCCN)C(=O)N[C@@H](CCCCN)C(=O)N[C@H](C(=O)N[C@H](C(=O)N[C@@H](CCCCN)C(=O)N[C@@H](CCCCN)C(=O)N[C@H](C(=O)N[C@@H](CO[C@@H]1O[C@H](CO)[C@H](O)[C@H](O)[C@H]1O)C(N)=O)[C@@H](C)CC)[C@@H](C)CC)[C@@H](C)CC)[C@@H](C)CC)[C@@H](C)CC (Octanoyl-GIIKKIIKKIS(βGal)-NH2) | – | 4 (≈ 6.11 µg/mL) | 16 | – | 28 | -4.53 | 16 (≈ 24.4 µg/mL) | -6.53 | Active | – | 12 (≈ 18.3 µg/mL) | 4 (≈ 6.11 µg/mL) | – | – | – | – | – | – | –
CCCCCCCCCCCCCCCC(=O)NCC(=O)N[C@H](C(=O)N[C@H](C(=O)N[C@@H](CCCCN)C(=O)N[C@@H](CCCCN)C(=O)N[C@H](C(=O)N[C@H](C(=O)N[C@@H](CCCCN)C(=O)N[C@@H](CCCCN)C(=O)N[C@H](C(=O)N[C@H](C(=O)N[C@@H](CCCCN)C(=O)N[C@@H](CCCCN)C(=O)N[C@H](C(N)=O)[C@@H](C)CC)[C@@H](C)CC)[C@@H](C)CC)[C@@H](C)CC)[C@@H](C)CC)[C@@H](C)CC)[C@@H](C)CC (Palmitoyl-GIIKKIIKKIIKKI-NH2) | – | 32 (≈ 60 µg/mL) | 16 | – | – | – | 32 (≈ 60 µg/mL) | – | Active | – | 32 (≈ 60 µg/mL) | 16 (≈ 30 µg/mL) | – | – | – | – | – | – | –
Ac-GIIKKIIKKIIKKI-NH2 | – | 12 | 16 | – | – | – | 32 | – | Active | – | 12 | 4 | – | – | – | – | – | – | –
H-GIIKKIIKKIIKKI-NH2 | – | 16 | 16 | – | – | – | 16 | – | Active | – | 8 | 4 | – | – | – | – | 59 | 46 | 45
